The values below come from ChEMBL document CHEMBL4706703, “Novel 3-benzylidene/benzylphthalide Mannich base derivatives as potential multifunctional agents for the treatment of Alzheimer's disease” (Bioorg Med Chem, 2021).

Each structure is given as a SMILES string. The source made the active and inactive calls. The rule behind the calls is not given here.

Data set [1] relates to Plasma. Kind of data set: Antiplatelet activity in rat platelet-rich plasma assessed as inhibition of ADP-induced platelet aggregation preincubated for 30 mins followed by ADP addition measured within 5 mins by aggregometry. The class given is functional.
In data set [2] the test system is PC-12. The data set can be described thus: Neuroprotective activity against H2O2-induced cytotoxicity in rat PC12 cells assessed as increase in cell viability at 100 uM preincubated for 2 hrs followed by H2O2 addition and measured after 24 hrs by MTT assay. The class given is functional, cell-based. Conditions: time 26.0 hrs. On the technique in general: Formazan colour is commonly taken as a measure of viable cells.

The nature of data set [3]: Antioxidant activity assessed as trolox equivalent of AAPH radical scavenging activity measured every min for 90 mins by ORAC-FL assay. The class given is functional.
The target of data set [4] is Amyloid-beta precursor protein (Homo sapiens) (UniProt P05067). Kind of data set: Inhibition of amyloid beta (1 to 42) (unknown origin) self aggregation at 25 uM after 24 hrs by thioflavin-T fluorescence method relative to control.
Chain of Amyloid-beta precursor protein (Homo sapiens) (P05067 whole entry): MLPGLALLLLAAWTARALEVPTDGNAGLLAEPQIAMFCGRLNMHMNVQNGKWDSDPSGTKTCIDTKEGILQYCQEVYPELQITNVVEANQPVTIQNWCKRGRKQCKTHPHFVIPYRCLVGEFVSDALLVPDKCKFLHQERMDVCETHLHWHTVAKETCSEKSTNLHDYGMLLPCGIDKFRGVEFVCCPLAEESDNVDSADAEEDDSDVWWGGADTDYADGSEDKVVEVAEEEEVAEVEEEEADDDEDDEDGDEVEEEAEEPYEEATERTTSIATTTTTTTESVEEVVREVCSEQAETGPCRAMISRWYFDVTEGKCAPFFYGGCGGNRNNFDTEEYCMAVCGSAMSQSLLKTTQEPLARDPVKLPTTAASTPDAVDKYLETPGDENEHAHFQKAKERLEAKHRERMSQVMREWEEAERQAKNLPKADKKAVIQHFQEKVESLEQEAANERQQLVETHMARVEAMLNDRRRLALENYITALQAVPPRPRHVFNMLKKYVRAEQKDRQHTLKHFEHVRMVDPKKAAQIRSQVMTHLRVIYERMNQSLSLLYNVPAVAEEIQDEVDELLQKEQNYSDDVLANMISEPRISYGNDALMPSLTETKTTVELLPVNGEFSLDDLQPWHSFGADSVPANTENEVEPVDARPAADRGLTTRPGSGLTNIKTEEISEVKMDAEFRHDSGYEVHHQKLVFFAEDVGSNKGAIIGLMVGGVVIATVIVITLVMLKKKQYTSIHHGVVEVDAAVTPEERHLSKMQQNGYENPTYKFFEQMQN
For data set [5], the target named is T1, Acetylcholinesterase (Electrophorus electricus, UniProt O42275). The data set can be described thus: Inhibition of Electrophorus electricus AChE using acetylthiocholine iodide as substrate incubated for 15 mins by Ellman's method. A general note: In Ellman's method for cholinesterases, released thiocholine reacts with DTNB.
T1 sequence (O42275 whole entry): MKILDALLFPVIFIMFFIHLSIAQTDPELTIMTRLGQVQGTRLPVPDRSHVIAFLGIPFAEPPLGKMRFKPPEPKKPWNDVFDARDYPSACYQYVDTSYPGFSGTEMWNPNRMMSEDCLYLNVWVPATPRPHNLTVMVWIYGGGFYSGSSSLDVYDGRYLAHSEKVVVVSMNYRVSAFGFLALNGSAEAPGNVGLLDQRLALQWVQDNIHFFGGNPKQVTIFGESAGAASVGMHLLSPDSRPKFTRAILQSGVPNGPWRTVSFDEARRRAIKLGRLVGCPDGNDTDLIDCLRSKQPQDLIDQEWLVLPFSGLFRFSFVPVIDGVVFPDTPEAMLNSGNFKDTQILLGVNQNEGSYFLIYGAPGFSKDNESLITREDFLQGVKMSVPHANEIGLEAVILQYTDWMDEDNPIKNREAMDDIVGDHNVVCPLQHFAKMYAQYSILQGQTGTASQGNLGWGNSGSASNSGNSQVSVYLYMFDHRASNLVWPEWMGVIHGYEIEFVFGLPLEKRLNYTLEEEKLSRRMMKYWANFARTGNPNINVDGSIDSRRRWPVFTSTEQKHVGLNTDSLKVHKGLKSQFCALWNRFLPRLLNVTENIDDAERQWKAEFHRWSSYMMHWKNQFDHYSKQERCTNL
Data set [6] addresses butyrylcholinesterase (BuChE) (Rattus norvegicus, UniProt Q9JKC1). Kind of data set: Inhibition of rat serum BuChE at 10 uM using butyrylthiocholine iodide as substrate incubated for 15 mins by Ellman's method relative to control. Type of data set: cell-free. Conditions: probe butyrylthiocholine iodide.
Data set [7] concerns the target T2, Amine oxidase [flavin-containing] B (Homo sapiens, UniProt P27338).
T2 sequence (P27338 whole entry): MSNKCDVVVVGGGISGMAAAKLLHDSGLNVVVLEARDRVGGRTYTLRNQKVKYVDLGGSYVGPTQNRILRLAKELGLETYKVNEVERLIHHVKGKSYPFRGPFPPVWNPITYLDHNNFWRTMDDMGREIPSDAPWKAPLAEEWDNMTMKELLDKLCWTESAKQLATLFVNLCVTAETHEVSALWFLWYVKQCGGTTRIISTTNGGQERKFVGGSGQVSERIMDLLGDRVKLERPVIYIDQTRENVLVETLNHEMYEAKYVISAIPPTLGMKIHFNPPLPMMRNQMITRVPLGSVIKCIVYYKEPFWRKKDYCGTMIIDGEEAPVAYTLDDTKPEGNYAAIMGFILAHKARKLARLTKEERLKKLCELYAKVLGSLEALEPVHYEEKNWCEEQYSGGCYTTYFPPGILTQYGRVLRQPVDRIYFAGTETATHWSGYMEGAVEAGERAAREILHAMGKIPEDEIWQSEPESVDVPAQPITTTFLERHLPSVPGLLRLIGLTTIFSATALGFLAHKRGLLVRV
Kind of data set: Inhibition of recombinant human MAOB at 10 uM using kynuramine as substrate preincubated for 30 mins followed by substrate addition and measured after 30 mins by fluorescence assay relative to control. Conditions: 0.5 h.

The subject of data set [8] is Plasma. Kind of data set: Antiplatelet activity in rat platelet-rich plasma assessed as inhibition of ADP-induced platelet aggregation at 33 uM preincubated for 30 mins followed by ADP addition measured within 5 mins by aggregometry relative to control. Type of data set: functional. Conditions: time 30-35 min.
The nature of data set [9]: Permeability of the compound in pH 7.4 PBS/EtOH at 100 ug/ml after 18 hrs by PAMPA-BBB assay. The class given is ADME. Conditions: dose 100 µg/ml, read-out: permeability.
The target of data set [10] is T3, MAO-A (Homo sapiens, UniProt P21397).
T3 sequence (P21397 whole entry): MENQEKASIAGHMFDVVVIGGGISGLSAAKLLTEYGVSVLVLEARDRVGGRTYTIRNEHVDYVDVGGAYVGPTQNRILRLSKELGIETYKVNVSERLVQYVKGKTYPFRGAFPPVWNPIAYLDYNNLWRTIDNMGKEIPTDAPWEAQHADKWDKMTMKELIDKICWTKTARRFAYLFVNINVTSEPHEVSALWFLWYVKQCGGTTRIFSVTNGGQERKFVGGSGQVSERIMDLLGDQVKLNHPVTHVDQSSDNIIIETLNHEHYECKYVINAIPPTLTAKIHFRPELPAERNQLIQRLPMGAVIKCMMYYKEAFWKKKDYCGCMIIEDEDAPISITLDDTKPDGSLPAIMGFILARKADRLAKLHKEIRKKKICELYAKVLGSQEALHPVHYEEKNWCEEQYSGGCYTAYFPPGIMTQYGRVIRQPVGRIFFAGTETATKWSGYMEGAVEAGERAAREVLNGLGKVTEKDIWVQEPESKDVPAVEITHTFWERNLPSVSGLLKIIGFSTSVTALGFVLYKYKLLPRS
Kind of data set: Inhibition of recombinant human MAOA at 10 uM using kynuramine as substrate preincubated for 30 mins followed by substrate addition and measured after 30 mins by fluorescence assay relative to control. To be noted: probe kynuramine, time 60 min.

In data set [11] the target is T4, Acetylcholinesterase (Homo sapiens, UniProt P22303). The data set can be described thus: Inhibition of human AChE using acetylthiocholine iodide as substrate incubated for 15 mins by Ellman's method.
T4 sequence (P22303 whole entry): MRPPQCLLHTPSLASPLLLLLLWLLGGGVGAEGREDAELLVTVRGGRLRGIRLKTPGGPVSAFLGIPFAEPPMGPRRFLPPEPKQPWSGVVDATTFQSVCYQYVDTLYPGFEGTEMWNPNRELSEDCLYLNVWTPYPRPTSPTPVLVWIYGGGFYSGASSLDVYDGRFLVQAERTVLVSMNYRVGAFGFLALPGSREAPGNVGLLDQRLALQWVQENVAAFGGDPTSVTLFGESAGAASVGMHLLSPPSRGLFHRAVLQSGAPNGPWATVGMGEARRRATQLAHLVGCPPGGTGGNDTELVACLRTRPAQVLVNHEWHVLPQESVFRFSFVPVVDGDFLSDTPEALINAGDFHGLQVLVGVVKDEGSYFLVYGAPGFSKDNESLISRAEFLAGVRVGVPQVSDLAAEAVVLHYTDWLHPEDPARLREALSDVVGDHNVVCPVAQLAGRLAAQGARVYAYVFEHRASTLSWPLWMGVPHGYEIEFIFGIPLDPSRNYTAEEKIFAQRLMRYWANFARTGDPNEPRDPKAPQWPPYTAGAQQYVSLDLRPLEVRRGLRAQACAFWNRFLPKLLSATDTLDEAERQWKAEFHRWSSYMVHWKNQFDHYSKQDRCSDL
Data set [12] relates to Mus musculus. Kind of data set: Reversal of scopolamine-induced memory impairment in ig dosed Kunming mouse assessed as increase in ACh level in cerebral cortex administered once daily for 7 days followed by scopolamine challenge 30 mins prior to training trail on day 6 measured on day 7. The class given is functional, organism-based. Conditions: dose 0.19-4.75 mg/kg, time 7.0 day.

Data set [13] in a line: Cytotoxicity against rat PC-12 cells assessed as cell viability at 100 uM measured after 2 hrs by MTT assay relative to control. The class given is cell-based. To be noted: read-out: Activity.
In data set [14] the test system is PC-12. Kind of data set: Cytotoxicity against rat PC-12 cells assessed as effect on cell viability up to 50 uM measured after 2 hrs by MTT assay. The class given is cell-based. To be noted: pc-12, 2 h.
Data set [15] in a line: Metal chelating activity assessed as compound-Cu2+ complex formation by measuring induction of red shift at 37.5 uM measured after 2 hrs by UV-visible spectrometric method.
Data set [16] has as its target Amyloid-beta precursor protein (Homo sapiens) (UniProt P05067). Kind of data set: Disaggregation of self-induced amyloid beta (1 to 42) (unknown origin) preformed fibrils at 25 uM measured after 24 hrs by thioflavin-T fluorescence assay relative to control.
Data set [17] in a line: Metal chelating activity assessed as compound-Fe2+ complex formation by measuring induction of red shift at 37.5 uM measured after 2 hrs by UV-visible spectrometric method.
The test system of data set [18] is PC-12. Kind of data set: Neuroprotective activity against H2O2-induced cytotoxicity in rat PC12 cells assessed as cell viability at 50 uM preincubated for 2 hrs followed by H2O2 addition and measured after 24 hrs by MTT assay (reference value: 53.1%). To be noted: PC-12, 24 h, time 26 hrs, read-out: Activity. Type of data set: cell-based.
The nature of data set [19]: Metal chelating activity assessed as compound-Zn2+ complex formation by measuring induction of red shift at 37.5 uM measured after 2 hrs by UV-visible spectrometric method.
Data set [20] concerns Mus musculus. Kind of data set: Memory improvement effect in ig dosed Kunming mouse model of scopolamine-induced memory impairment assessed as increase in latency time administered once daily for 7 days followed by scopolamine challenge 30 mins prior to training on day 6 measured on day 7 by passive avoidance test. Type of data set: functional, organism-based. To be noted: dose 0.19-4.75 mg/kg, time 7.0 day.

Data set [21] concerns the target T2, Amine oxidase [flavin-containing] B. The data set can be described thus: Inhibition of recombinant human MAOB using kynuramine as substrate preincubated for 30 mins followed by substrate addition and measured after 30 mins by fluorescence assay.
The nature of data set [22]: Metal chelating activity assessed as mole fraction required to show 1:1 stoichiometry for compound-Cu2+ complex formation measured after 30 mins.
Data set [23] can be described thus: Inhibition of Cu2+-induced amyloid beta (1 to 42 residues) aggregation at 25 uM after 24 hrs by thioflavin T-based fluorescence assay relative to control.
Data set [24] deals with T1, Acetylcholinesterase. The data set can be described thus: Competitive inhibition of Electrophorus electricus AChE using varying levels of acetylthiocholine iodide as substrate preincubated for 15 mins followed by substrate addition and measured for 15 mins by Ellman's method based Lineweaver-Burk plot analysis.
A short description of data set [25]: Metal chelating activity assessed as compound-Al3+ complex formation by measuring induction of blue shift at 37.5 uM measured after 2 hrs by UV-visible spectrometric method.
Data set [26] deals with Mus musculus. The data set can be described thus: Memory improvement effect in ig dosed Kunming mouse model of scopolamine-induced memory impairment assessed as reduction in number of errors administered once daily for 7 days followed by scopolamine challenge 30 mins prior to training on day 6 measured on day 7 by passive avoidance test. Type of data set: functional, organism-based. To be noted: dose 0.19-4.75 mg/kg, time 7.0 day.

In data set [27] the test system is PC-12. The data set can be described thus: Neuroprotective activity against H2O2-induced cytotoxicity in rat PC12 cells assessed as increase in cell viability preincubated for 2 hrs followed by H2O2 addition and measured after 24 hrs by MTT assay. Conditions: dose 1-50 µM, time 26.0 hrs. The class given is functional, cell-based.
Data set [28] deals with Mus musculus. Kind of data set: Memory improvement effect in Kunming mouse model of scopolamine-induced memory impairment assessed as reduction in number of errors at 5 mg/kg, ig administered once daily for 7 days followed by scopolamine challenge 30 mins prior to training on day 6 measured on day 7 by passive avoidance test. To be noted: time 7.0 day. Type of data set: functional, organism-based.

For data set [29], the system named is Mus musculus. Kind of data set: Memory improvement effect in Kunming mouse model of scopolamine-induced memory impairment assessed as increase in latency time at 5 mg/kg, ig administered once daily for 7 days followed by scopolamine challenge 30 mins prior to training on day 6 measured on day 7 by passive avoidance test. Type of data set: functional, organism-based. Conditions: time 7.0 day.

Data set [30] deals with Mus musculus. The data set can be described thus: Reversal of scopolamine-induced memory impairment in Kunming mouse assessed as increase in ACh level in cerebral cortex at 5 mg/kg, ig administered once daily for 7 days followed by scopolamine challenge 30 mins prior to training trail on day 6 measured on day 7. Type of data set: functional, organism-based. Conditions: time 7.0 day.

Data set [31] has as its target T4, Acetylcholinesterase. Kind of data set: Inhibition of human AChE at 10 uM using acetylthiocholine iodide as substrate incubated for 15 mins by Ellman's method relative to control.
For data set [32], the system named is PC-12. Kind of data set: Neuroprotective activity against H2O2-induced cytotoxicity in rat PC12 cells assessed as increase in cell viability at 10 uM preincubated for 2 hrs followed by H2O2 addition and measured after 24 hrs by MTT assay. Type of data set: functional, cell-based. To be noted: time 26.0 hrs.

Chain of butyrylcholinesterase (BuChE) (Q9JKC1 whole entry): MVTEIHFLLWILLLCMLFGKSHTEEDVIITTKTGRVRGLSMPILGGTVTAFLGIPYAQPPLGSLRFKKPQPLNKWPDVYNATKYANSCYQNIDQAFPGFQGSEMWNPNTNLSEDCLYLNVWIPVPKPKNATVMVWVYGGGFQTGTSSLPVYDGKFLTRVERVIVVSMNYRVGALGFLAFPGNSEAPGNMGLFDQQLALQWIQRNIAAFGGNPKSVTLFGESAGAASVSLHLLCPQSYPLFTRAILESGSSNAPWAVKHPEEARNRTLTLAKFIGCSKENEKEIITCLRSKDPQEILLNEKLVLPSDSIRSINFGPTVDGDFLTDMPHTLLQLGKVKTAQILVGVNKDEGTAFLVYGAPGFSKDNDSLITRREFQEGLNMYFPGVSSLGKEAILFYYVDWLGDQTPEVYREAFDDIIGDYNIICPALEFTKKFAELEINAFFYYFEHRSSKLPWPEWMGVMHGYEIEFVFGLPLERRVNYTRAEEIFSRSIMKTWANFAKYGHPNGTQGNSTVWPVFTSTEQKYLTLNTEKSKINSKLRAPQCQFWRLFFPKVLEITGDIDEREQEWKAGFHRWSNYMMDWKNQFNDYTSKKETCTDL

Consider `O=C1CCc2cc(OCCCCc3nnnn3C3CCCCC3)ccc2N1` [CILOSTAZOL], for which the IC50 (in general, the concentration at which inhibition is half-maximal) in [1] came out at 65100 nM.

Regarding `Cc1c(C)c2c(c(C)c1O)CCC(C)(C(=O)O)O2` (stereo not given), in [2], the outcome was Active.

Turning to `COc1cc2c(cc1OC)/C(=C\c1ccc(O)c(N3CCCCC3)c1)OC2=O`, in data set [3], the Activity worked out at 1.95 equiv. In data set [4], the inhibition (as a rule, the change of the read-out against control, counted positive when it falls) was 15.8%. In addition, the IC50 is 0.0704 nM in data set [5] and 0.338 nM in data set [11]. For the same molecule, the inhibition at […], 10 µM in data set [6] was found to be 27.6%. In data set [7], the inhibition at 10 µM was found to be 34.8%. For the same molecule, the inhibition at 33 µM in data set [8] was 18.4%. Also, in data set [9], the Papp at 18 h, 100 ug/ml came out at 11.2 ×10⁻⁶ cm/s. The inhibition at 0.5 h, 10 µM in [10] came out at 5.67%.

As to `COc1cc2c(cc1OC)/C(=C/c1ccc(O)c(N3CCCCC3)c1)OC2=O`, the Activity in data set [3] is 2.05 equiv; in data set [12], “Dose-dependent effect”; in data set [14], “Non-Toxic”; in data set [16] it was 11.8%; in data set [20] it was “Dose-dependent effect”; in data set [26], “Dose-dependent effect”. The Activity result in data set [27] is “Dose-dependent effect”. In addition, the inhibition in [4] turned out to be 34.2%; in [23] it was 19.9%. Moreover, the viability at 2 h, 100 µM in data set [13] stood at 81.2%. The results for the IC50 in [5], in data set [21] and in data set [11] were 0.0918 nM, 5880 nM and 0.616 nM, respectively. Further, the outcome in [15], in [17], in [19] and in [25] was Active. In [6], the inhibition at […], 10 µM was found to be 22.4%. Moreover, the inhibition at 33 µM in data set [8] is 32.5%. Also, the viability at 50 µM in data set [18] was determined as 79%. Besides, the Papp at 18 h, 100 ug/ml in data set [9] amounted to 12.3 ×10⁻⁶ cm/s. Further, the Activity (mole fraction) in [22] came out at 0.88. Besides, in [24], the Ki (commonly a measure of affinity in units of concentration, obtained from inhibition or displacement) worked out at 0.082 nM. Moreover, in data set [10], the inhibition at 0.5 h, 10 µM was < 5%.

Consider `COc1cc2c(cc1OC)C(=O)C(CC1CCN(Cc3ccccc3)CC1)C2` (stereo not given), for which the result in data set [28], in data set [29] and in [30] was Active.

Consider `CCCCC1OC(=O)c2ccccc21` (racemic) [RAC-3-N-BUTYLPHTHALIDE], for which the values for the Activity in data set [3] and in data set [16] were 0.2 equiv and < 5%, respectively. Besides, the inhibition in data set [31] and in [23] was < 5% each time. In [6], the inhibition at […], 10 µM is < 5%. The inhibition at 33 µM in [8] stood at 9.5%. Also, the result in data set [32] was Active.
